Reference: patent US12427146B2, “C-terminal SRC kinase inhibitors” (INVENTISBIO CO., LTD., priority 2018, dated 2025)

Legend:
CSK protein = CSK protein (Homo sapiens (Human), UniProt P41240); test: CSK Inhibition Assay; format: biochemical
In short: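 Compounds, 11-point 1:3 dilutions in DMSO, were preincubated 30 min at RT with CSK and fluorescent peptide substrate, then the reaction was started with ATP (4 μM solution) and run 90 min at 25 °C before EDTA stop. Phospho-peptide conversion was read by mobility-shift separation (Caliper EZ Reader II) and converted to % inhibition for IC50.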

LCK protein = LCK protein (Homo sapiens (Human), UniProt P06239); test: LCK Inhibition Assay; format: biochemical
In short: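 Recombinant LCK (0.50 nM) preincubated 30 min at RT with compound and FLPeptide4 (2 μM) in 50 mM HEPES pH 7.5, 10 mM MgCl2, Brij-35, DTT, BSA; reaction started with ATP (400 μM solution added), run 90 min at 25 °C, EDTA-stopped. Phospho/non-phospho peptide separated by mobility shift; IC50 from % inhibition of conversion, 11-point 1:3 series.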

CSK protein, sequence (P41240 whole entry): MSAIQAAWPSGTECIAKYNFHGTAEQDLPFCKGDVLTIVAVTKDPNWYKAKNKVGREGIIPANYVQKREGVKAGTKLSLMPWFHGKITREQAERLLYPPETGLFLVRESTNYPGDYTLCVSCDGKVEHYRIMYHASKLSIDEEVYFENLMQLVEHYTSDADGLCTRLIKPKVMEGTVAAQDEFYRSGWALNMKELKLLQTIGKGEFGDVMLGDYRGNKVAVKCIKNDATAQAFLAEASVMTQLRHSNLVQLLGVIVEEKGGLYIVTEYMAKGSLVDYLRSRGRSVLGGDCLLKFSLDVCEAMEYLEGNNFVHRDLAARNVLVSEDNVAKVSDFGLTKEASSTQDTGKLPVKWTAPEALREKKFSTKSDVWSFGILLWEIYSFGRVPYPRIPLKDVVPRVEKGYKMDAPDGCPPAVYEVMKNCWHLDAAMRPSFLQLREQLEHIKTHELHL
LCK protein, sequence (P06239 whole entry): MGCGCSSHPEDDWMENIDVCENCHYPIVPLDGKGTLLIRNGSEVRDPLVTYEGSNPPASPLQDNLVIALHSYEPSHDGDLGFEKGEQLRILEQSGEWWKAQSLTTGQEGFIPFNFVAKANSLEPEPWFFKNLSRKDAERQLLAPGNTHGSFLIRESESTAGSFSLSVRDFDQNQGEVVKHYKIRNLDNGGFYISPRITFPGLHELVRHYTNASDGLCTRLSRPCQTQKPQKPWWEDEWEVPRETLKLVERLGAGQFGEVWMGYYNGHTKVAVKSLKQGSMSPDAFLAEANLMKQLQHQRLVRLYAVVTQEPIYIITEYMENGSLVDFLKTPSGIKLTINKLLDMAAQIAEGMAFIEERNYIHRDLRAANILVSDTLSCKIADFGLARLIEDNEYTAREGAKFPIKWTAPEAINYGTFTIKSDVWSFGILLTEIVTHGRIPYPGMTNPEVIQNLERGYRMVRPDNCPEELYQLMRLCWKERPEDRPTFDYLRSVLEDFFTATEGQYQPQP

SMILES	IC50 (CSK protein) [nM]	IC50 (LCK protein) [nM]
CNc1nccc(-c2sc(NC)nc2-c2cccc(NS(=O)(=O)c3c(F)cccc3F)c2F)n1 [Compound 114]	18.5	100 to 1000
Nc1nccc(-c2sc(-c3ccccc3)nc2-c2cccc(NS(=O)(=O)c3c(F)cccc3F)c2F)n1 [compound 2]	43.3	> 1000
O=S(=O)(Nc1cccc(-c2nc(-c3ccccc3)sc2-c2ccnc(Nc3cccnc3)n2)c1F)c1c(F)cccc1F [Compound 42]	37.7	100 to 1000
Nc1nccc(-c2sc(-c3ccc(C(F)(F)F)cc3)nc2-c2cccc(NS(=O)(=O)c3c(F)cccc3F)c2F)n1 [Compound 4]	328	> 1000
Cc1ccc(F)c(S(=O)(=O)Nc2cccc(-c3nc(N4CCCCC4)sc3-c3ccnc(NC4CC4)n3)c2F)c1F [Compound 176]	10.2	> 1000
CNc1nccc(-c2sc(N(C)C)nc2-c2cccc(NS(=O)(=O)c3c(F)cccc3F)c2F)n1 [Compound 157]	25.8	> 1000
CCNc1nccc(-c2sc(-c3ccc(F)cn3)nc2-c2cccc(NS(=O)(=O)c3c(F)ccc(C)c3F)c2F)n1 [Compound 56]	47	> 1000
Cc1ccc(Cl)c(S(=O)(=O)Nc2cccc(-c3nc(-c4cncc(F)c4)sc3-c3ccnc(N)n3)c2F)c1Cl [Compound 61]	12.6	> 1000
NCCNc1nccc(-c2sc(-c3cncc(F)c3)nc2-c2cccc(NS(=O)(=O)c3c(F)cccc3F)c2F)n1 [Compound 67]	617	> 1000
Nc1nccc(-c2sc(-c3ccccc3)nc2-c2cccc(NS(=O)(=O)c3ccc4[nH]ncc4c3)c2F)n1 [Compound 83]	842	> 1000
CNc1nccc(-c2c(-c3cccc(NS(=O)(=O)c4c(F)cccc4F)c3F)nc3cc(OC)ccn23)n1 [Compound 98]	78.3	> 1000
CNc1nccc(-c2sc(N3CCCCC3)nc2-c2cccc(NS(=O)(=O)c3c(F)ccc(C)c3F)c2F)n1 [Compound 161]	10.1	> 1000
O=S(=O)(Nc1cccc(-c2nc(-c3ccccc3)sc2-c2ccnc(Nc3cncnc3)n2)c1F)c1c(F)cccc1F [compound 38]	14.9	100 to 1000
COC(=O)N[C@@H](C)CNc1nccc(-c2sc(-c3ccccc3)nc2-c2cccc(NS(=O)(=O)c3c(F)cccc3F)c2F)n1 [Compound 16]	63.6	> 1000
CNc1nccc(-c2sc(N3CCCC3=O)nc2-c2cccc(NS(=O)(=O)c3c(F)ccc(C)c3F)c2F)n1 [Compound 124]	14.9	> 1000
Cc1ccc(-c2nc(-c3cccc(NS(=O)(=O)c4c(Cl)ccc(C)c4Cl)c3F)c(-c3ccnc(NC4CC4)n3)s2)nn1 [Compound 175]	6.5	> 1000
CNc1nccc(-c2c(-c3cccc(NS(=O)(=O)c4c(F)ccc(C)c4F)c3F)nc3ccc(F)cn23)n1 [Compound 106]	91.7	> 1000
CNc1nccc(-c2sc(-c3cnc(C)nc3)nc2-c2cccc(NS(=O)(=O)c3c(Cl)cccc3Cl)c2F)n1 [Compound 148]	6.9	100 to 1000
Cc1cc(F)c(S(=O)(=O)Nc2cccc(-c3nc(-c4ccccc4)sc3-c3ccnc(N)n3)c2F)c(F)c1 [Compound 35]	81.2	> 1000
Nc1nccc(-c2c(-c3cccc(NS(=O)(=O)c4c(F)cccc4F)c3F)nc3ccccn23)n1 [compound 90]	77	> 1000
O=S(=O)(Nc1cccc(-c2nc(-c3cncc(F)c3)sc2-c2ccnc(NCCO)n2)c1F)c1c(Cl)cccc1Cl [Compound 79]	7.6	> 1000
Cc1ccc(Cl)c(S(=O)(=O)Nc2cccc(-c3nc(N4CCCCC4)sc3-c3ccnc(NC4CC4)n3)c2F)c1Cl [Compound 179]	6.2	> 1000
CNc1nccc(-c2sc(-c3cncc(F)c3)nc2-c2cc(C)cc(NS(=O)(=O)c3c(F)cccc3F)c2F)n1 [compound 154]	12.5	100 to 1000
CNc1nccc(-c2sc(-c3ccc(F)cc3)nc2-c2cccc(NS(=O)(=O)c3c(F)ccc(C)c3F)c2F)n1 [Compound 70]	92.3	> 1000
CCn1cc(-c2nc(-c3cccc(NS(=O)(=O)c4c(F)cccc4F)c3F)c(-c3ccnc(N)n3)s2)cn1 [Compound 10]	30.1	100 to 1000
O=S(=O)(Nc1cccc(-c2nn(C3CCCCC3)cc2-c2ccnc(Nc3ccc(N4CCOCC4)nc3)n2)c1F)c1c(F)cccc1F [Compound 109]	4.6	< 100
Cc1ccc(F)c(S(=O)(=O)Nc2cccc(-c3nc(-c4ccc(F)cn4)sc3-c3ccnc(N)n3)c2F)c1F [Compound 54]	92.8	> 1000

SMILES	IC50 (CSK protein) [nM]	IC50 (LCK protein) [nM]
CNc1nccc(-c2sc(N(C)CC(F)(F)F)nc2-c2cccc(NS(=O)(=O)c3c(F)cccc3F)c2F)n1 [Compound 181]	7.8	100 to 1000
O=S(=O)(Nc1cccc(-c2nc(C3CCCCC3)sc2-c2ccnc(Nc3ccc(N4CCOCC4)nc3)n2)c1F)c1c(F)cccc1F [Compound 121]	15.5	< 100
C[C@H](Nc1nccc(-c2sc(-c3ccccc3)nc2-c2cccc(NS(=O)(=O)c3c(F)cccc3F)c2F)n1)C(N)=O [Compound 44]	43.9	> 1000
Cc1cccn2c(-c3ccnc(N)n3)c(-c3cccc(NS(=O)(=O)c4c(F)cccc4F)c3F)nc12 [Compound 93]	41.8	> 1000
COc1cc(N2CCOCC2)ccc1Nc1nccc(-c2sc(-c3ccccc3)nc2-c2cccc(NS(=O)(=O)c3c(F)cccc3F)c2F)n1 [Compound 9]	50.3	> 1000
CC(=O)N[C@@H](C)CNc1nccc(-c2sc(-c3ccccc3)nc2-c2cccc(NS(=O)(=O)c3c(F)cccc3F)c2F)n1 [Compound 41]	87.3	> 1000
CNc1nccc(-c2sc(-c3ccc(F)cn3)nc2-c2cccc(NS(=O)(=O)c3c(F)cc(Cl)cc3F)c2F)n1 [Compound 134]	184	> 1000
COc1ccc(F)c(S(=O)(=O)Nc2cccc(-c3nc(-c4cncc(F)c4)sc3-c3ccnc(N)n3)c2F)c1F [compound 50]	76.3	> 1000
Cc1ncc(-c2nc(-c3cccc(NS(=O)(=O)c4c(Cl)cccc4Cl)c3F)c(-c3ccnc(NCCO)n3)s2)cn1 [Compound 150]	8.1	> 1000
Nc1nccc(-c2sc(-c3cncc(C4CC4)c3)nc2-c2cccc(NS(=O)(=O)c3c(F)cccc3F)c2F)n1 [compound 48]	75.8	> 1000
O=S(=O)(Nc1cccc(-c2nc(-c3ccc(F)cn3)sc2-c2ccnc(NC3CC3)n2)c1F)c1c(Cl)cccc1Cl [Compound 135]	15.7	> 1000
Cc1ccc(F)c(S(=O)(=O)Nc2cccc(-c3nc(-c4ccccc4)sc3-c3ccnc(N)n3)c2F)c1F [compound 36]	22.3	> 1000
Cc1ccnc(-c2nc(-c3cccc(NS(=O)(=O)c4c(F)cccc4F)c3F)c(-c3ccnc(N)n3)s2)c1 [Compound 40]	48	> 1000
Nc1nccc(-c2sc(-c3cncc(Cl)c3)nc2-c2cccc(NS(=O)(=O)c3c(F)cccc3F)c2F)n1 [Compound 11]	103	> 1000
CNc1nccc(-c2sc(-c3ccc(C)nn3)nc2-c2cccc(NS(=O)(=O)c3c(F)ccc(C)c3F)c2F)n1 [Compound 65]	14.9	> 1000
COc1ccc(-c2nc(-c3cccc(NS(=O)(=O)c4c(F)cccc4F)c3F)c(-c3ccnc(N)n3)s2)nc1 [Compound 30]	41	100 to 1000
CC(C)(C)c1nc(-c2cccc(NS(=O)(=O)c3c(F)cccc3F)c2F)c(-c2ccnc(Nc3ccc(N4CCOCC4)nc3)n2)s1 [compound 118]	2.8	< 100
CNc1nccc(-c2sc(N3CCC(F)(F)CC3)nc2-c2cccc(NS(=O)(=O)c3c(F)ccc(C)c3F)c2F)n1 [Compound 189]	18.5	> 1000
CN(C)c1ccn2c(-c3ccnc(N)n3)c(-c3cccc(NS(=O)(=O)c4c(F)cccc4F)c3F)nc2c1 [Compound 95]	71.6	> 1000
COc1ccn2c(-c3ccnc(NC4CC4)n3)c(-c3cccc(NS(=O)(=O)c4c(Cl)ccc(C)c4Cl)c3F)nc2c1 [Compound 160]	112	> 1000
CNc1nccc(-c2sc(N3CCC(F)(F)C3)nc2-c2cccc(NS(=O)(=O)c3c(F)cccc3F)c2F)n1 [Compound 162]	6.4	100 to 1000
Nc1nccc(-c2sc(-c3cccc(F)c3)nc2-c2cccc(NS(=O)(=O)c3c(F)cccc3F)c2F)n1 [Compound 15]	51.4	> 1000
CNc1nccc(-c2sc(-c3ccc(F)cn3)nc2-c2cccc(NS(=O)(=O)c3c(Cl)cccc3Cl)c2F)n1 [Compound 123]	23.2	> 1000
CNc1nccc(-c2sc(N3CC(F)(F)C3)nc2-c2cccc(NS(=O)(=O)c3c(F)cccc3F)c2F)n1 [Compound 168]	12.7	100 to 1000
Cc1ccc(Cl)c(S(=O)(=O)Nc2cccc(-c3nc(-c4ccc(F)cn4)sc3-c3ccnc(NCCO)n3)c2F)c1Cl [Compound 136]	108	> 1000
CNc1nccc(-c2sc(N3CCCCC3)nc2-c2cccc(NS(=O)(=O)c3c(F)cccc3F)c2F)n1 [Compound 115]	7.1	> 1000
CC(C)Nc1nccc(-c2sc(-c3cncc(F)c3)nc2-c2cccc(NS(=O)(=O)c3c(F)cccc3F)c2F)n1 [Compound 78]	11.8	> 1000
